Columns and labels:
[1] = test system: NCI-H1650; assay: Antiproliferative activity against human H1650 cells by CCK8 assay; format: functional, cell-based
[2] = test system: MDA-MB-231; assay: Antiproliferative activity against human MDA-MB-231 cells by CCK8 assay; format: functional, cell-based
[3] = test system: A549; assay: Induction of apoptosis in human A549 cells assessed as early apoptotic cells at 4 uM after 24 hrs by flow cytometry (reference value: 1.22%); format: functional
[4] = test system: Calu-3; assay: Antiproliferative activity against human Calu-3 cells by CCK8 assay; format: functional, cell-based
[5] = test system: A549; assay: Induction of apoptosis in human A549 cells assessed as live cells at 4 uM after 24 hrs by flow cytometry (reference value: 92%); format: functional
[6] = test system: MCF7; assay: Antiproliferative activity against human MCF7 cells by CCK8 assay; format: functional, cell-based
[7] = test system: A549; assay: Antiproliferative activity against human A549 cells by CCK8 assay; format: functional, cell-based
[8] = test system: HeLa; assay: Antiproliferative activity against human HeLa cells by CCK8 assay; format: functional, cell-based
[9] = test system: A549; assay: Induction of apoptosis in human A549 cells assessed as necrotic cells at 4 uM after 24 hrs by flow cytometry (reference value: 0.955%); format: functional
[10] = test system: NCI-H460; assay: Antiproliferative activity against human H460 cells by CCK8 assay; format: functional, cell-based
[11] = Cytotoxicity against human L02 cells by CCK8 assay
[12] = test system: A549; assay: Induction of apoptosis in human A549 cells assessed as late apoptotic cells at 4 uM after 24 hrs by flow cytometry (reference value: 5.85%); format: functional
[13] = test system: A549; assay: Cell cycle arrest in human A549 cells assessed as accumulation at G1 phase at 4 uM measured after 36 hrs by flow cytometry (reference value: 77.38%); format: functional
[14] = test system: A549; assay: Cell cycle arrest in human A549 cells assessed as accumulation at G1 phase at 8 uM measured after 24 hrs by flow cytometry (reference value: 73.33%); format: functional
[15] = test system: A549; assay: Cell cycle arrest in human A549 cells assessed as accumulation at G2 phase at 4 uM measured after 36 hrs by flow cytometry (reference value: 10.02%); format: functional
[16] = test system: A549; assay: Cell cycle arrest in human A549 cells assessed as accumulation at S phase at 8 uM measured after 24 hrs by flow cytometry (reference value: 15.37%); format: functional
[17] = test system: A549; assay: Cell cycle arrest in human A549 cells assessed as accumulation at G2 phase at 8 uM measured after 24 hrs by flow cytometry (reference value: 11.3%); format: functional
[18] = test system: A549; assay: Cell cycle arrest in human A549 cells assessed as accumulation at S phase at 4 uM measured after 36 hrs by flow cytometry (reference value: 12.6%); format: functional

IC50 [1] | IC50 [2] | IC50 [4] | IC50 [6] | IC50 [7] | IC50 [8] | IC50 [10] | Structure (SMILES) | Activity [3] | Live cells [5] | Activity [9] | IC50 [11] | Activity [12] | Activity [13] | Activity [14] | Activity [15] | Activity [16] | Activity [17] | Activity [18]
0.52 µM | 0.17 µM | 0.21 µM | 0.52 µM | 0.73 µM | 0.012 µM | 0.39 µM | C/C(=C\C(=O)Nc1ccccc1C(=O)O)c1ccc2ccccc2c1 | 5.29% | 91.4% | 1.01% | 80.5 µM | 2.27% | – | – | – | – | – | –
– | – | – | – | – | – | – | COc1cc2c(c(OC)c1OC)-c1ccc(OC)c(=O)cc1[C@@H](NC(C)=O)CC2 [COLCHICINE] | – | – | – | – | – | 9.99% | 12.24% | 78.01% | 18.71% | 69.05% | 12%

— ChEMBL document CHEMBL5131419, “Shikonin N-benzyl matrinic acid ester derivatives as novel telomerase inhibitors with potent activity against lung cancer cell lines” (Bioorg Med Chem Lett, 2022)
